Measurements reported in PubChem BioAssay AID292 (DTP/NCI, 2004).
Several values for one entry are separate records, joined by “and”; a condition that tells them apart may be missing. Equal values may be shown once. Inconclusive results and toxic doses are left out.

System: B6C3F1 mice, ip Sarcoma M5076, median survival T/C
Experiment: NCI In Vivo Anticancer Drug Screen. Data for tumor model Sarcoma M5076 (intraperitoneal) in B6C3F1 mice
Conditions: endpoint: median survival time, higher = longer survival
How it was run: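 Tumour cells were transplanted into mice, compound or vehicle was given, survival of both groups was followed, and the treated figure was expressed over the control figure.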

[1] = dose: 50.0 mg/kg/injection, schedule: Q04DX004 (ip), vehicle: Klucel (hydroxypropylcellulose) (HPC)
[2] = dose: 100.0 mg/kg/injection, schedule: Q04DX004 (ip), vehicle: Klucel (hydroxypropylcellulose) (HPC)
[3] = dose: 25.0 mg/kg/injection, schedule: Q04DX004 (ip), vehicle: Klucel (hydroxypropylcellulose) (HPC)
[4] = dose: 25.0 mg/kg/injection, schedule: Q04DX004 (ip), vehicle: saline with Tween-80
[5] = dose: 50.0 mg/kg/injection, schedule: Q04DX004 (ip), vehicle: saline with Tween-80
[6] = dose: 100.0 mg/kg/injection, schedule: Q04DX004 (ip), vehicle: saline with Tween-80
[7] = dose: 200.0 mg/kg/injection, schedule: Q04DX004 (ip), vehicle: Klucel (hydroxypropylcellulose) (HPC)

## Nc1nc(Br)nc2c1ncn2C1CC(O)C(CO)O1 (stereo not given)
dose: 7.5 mg/kg/injection, schedule: Q03HX009 (ip), vehicle: saline
  T/C: 102 % of control
dose: 15.0 mg/kg/injection, schedule: Q03HX009 (ip), vehicle: saline
  T/C: 118 % of control
dose: 30.0 mg/kg/injection, schedule: Q03HX009 (ip), vehicle: saline
  T/C: 109 % of control
dose: 60.0 mg/kg/injection, schedule: Q03HX009 (ip), vehicle: saline
  T/C: 116 % of control
dose: 120.0 mg/kg/injection, schedule: Q03HX009 (ip), vehicle: saline
  T/C: 113 % of control

## N#CC1C(=O)NC(=O)C(C#N)C1C(Cl)(Cl)Cl (stereo not given)
[1]
  T/C: 94 % of control
[2]
  T/C: 95 % of control

## CCCCCCCCCCCCN1C(C)=CS/C1=C\C=C\c1scc(C)[n+]1CCCCCCCCCCCC
dose: 0.75 mg/kg/injection, schedule: Q04DX004 (ip), vehicle: saline with Tween-80
  T/C: 119 % of control
dose: 1.5 mg/kg/injection, schedule: Q04DX004 (ip), vehicle: saline with Tween-80
  T/C: 116 % of control

## CC[C@@H](C)[C@H]([C@H](CC(=O)N1CCC[C@@H]1[C@@H](OC)[C@H](C)C(=O)N[C@H](Cc1ccccc1)c1nccs1)OC)N(C)C(=O)[C@H](NC(=O)[C@@H](C(C)C)N(C)C)C(C)C
dose: 8.0 micrograms/kg/injection, schedule: Q04DX004 (ip), vehicle: saline + alcohol
  T/C: 153 % of control
dose: 36.0 micrograms/kg/injection, schedule: Q04DX004 (ip), vehicle: saline + alcohol
  T/C: 153 % of control

## COc1ccc(CCN2C(=O)C(=O)N(C)C2=O)cc1OC
[3]
  T/C: 89 % of control
[1]
  T/C: 99 % of control
dose: 400.0 mg/kg/injection, schedule: Q04DX004 (ip), vehicle: Klucel (hydroxypropylcellulose) (HPC)
  T/C: 92 % of control

## CCOC(=O)c1c(C(=O)OC)nc2n1-c1ccccc1OC2
dose: 31.25 mg/kg/injection, schedule: Q04DX004 (ip), vehicle: saline with Tween-80
  T/C: 100 % of control
dose: 62.0 mg/kg/injection, schedule: Q04DX004 (ip), vehicle: saline with Tween-80
  T/C: 103 % of control
dose: 125.0 mg/kg/injection, schedule: Q04DX004 (ip), vehicle: saline with Tween-80
  T/C: 100 % of control
dose: 250.0 mg/kg/injection, schedule: Q04DX004 (ip), vehicle: saline with Tween-80
  T/C: 88 % of control
dose: 500.0 mg/kg/injection, schedule: Q04DX004 (ip), vehicle: saline with Tween-80
  T/C: 96 % of control

## COc1ccc(/C=N/NC(=O)c2ccc(OCc3nc4ccccc4[nH]3)cc2)cc1
[4]
  T/C: 99 % of control
[5]
  T/C: 100 % of control
[6]
  T/C: 103 % of control
dose: 200.0 mg/kg/injection, schedule: Q04DX004 (ip), vehicle: saline with Tween-80
  T/C: 97 % of control
dose: 400.0 mg/kg/injection, schedule: Q04DX004 (ip), vehicle: saline with Tween-80
  T/C: 97 % of control

## N#CC1C(=O)NC(=S)NC1CCc1ccccc1 (stereo not given)
[1]
  T/C: 95 % of control
[2]
  T/C: 100 % of control
[7]
  T/C: 108 % of control

## CN1C=C/C(=C/[N+](=O)[O-])N(C)C1=O
[3]
  T/C: 103 % of control
[1]
  T/C: 103 % of control
[2]
  T/C: 99 % of control
[7]
  T/C: 103 % of control

## CN(C)CCN1C(=O)c2cccc3cc(N)cc(c23)C1=O
dose: 12.96 mg/kg/injection, schedule: Q04DX004 (ip), vehicle: acid diluted with saline
  T/C: 108 % of control and 117 % of control
dose: 21.6 mg/kg/injection, schedule: Q04DX004 (ip), vehicle: acid diluted with saline
  T/C: 159 % of control
dose: 36.0 mg/kg/injection, schedule: Q04DX004 (ip), vehicle: acid diluted with saline
  T/C: 158 % of control

## CN(C)CCNC1=C(Cl)C(=O)c2ccccc2C1=O
dose: 1.5 mg/kg/injection, schedule: Q04DX004 (ip), vehicle: saline
  T/C: 91 % of control
dose: 3.0 mg/kg/injection, schedule: Q04DX004 (ip), vehicle: saline
  T/C: 98 % of control
dose: 6.0 mg/kg/injection, schedule: Q04DX004 (ip), vehicle: saline
  T/C: 89 % of control
dose: 12.0 mg/kg/injection, schedule: Q04DX004 (ip), vehicle: saline
  T/C: 105 % of control
dose: 12.5 mg/kg/injection, schedule: Q04DX004 (ip), vehicle: saline
  T/C: 106 % of control

## CC(C)c1ccc(C2NC(=S)NC(=O)C2C#N)cc1 (stereo not given)
dose: 50.0 mg/kg/injection, schedule: Q04DX004 (ip), vehicle: saline
  T/C: 100 % of control
dose: 100.0 mg/kg/injection, schedule: Q04DX004 (ip), vehicle: saline
  T/C: 97 % of control
dose: 200.0 mg/kg/injection, schedule: Q04DX004 (ip), vehicle: saline
  T/C: 88 % of control

## O=C(NC(Cc1ccc(I)cc1)C(=O)O)c1ccc(Br)cc1 (stereo not given)
dose: 25.0 mg/kg/injection, schedule: Q04DX004 (ip), vehicle: sodium bicarbonate
  T/C: 102 % of control
dose: 50.0 mg/kg/injection, schedule: Q04DX004 (ip), vehicle: sodium bicarbonate
  T/C: 105 % of control
dose: 100.0 mg/kg/injection, schedule: Q04DX004 (ip), vehicle: sodium bicarbonate
  T/C: 97 % of control
dose: 200.0 mg/kg/injection, schedule: Q04DX004 (ip), vehicle: sodium bicarbonate
  T/C: 104 % of control
dose: 400.0 mg/kg/injection, schedule: Q04DX004 (ip), vehicle: sodium bicarbonate
  T/C: 90 % of control

## O=c1cc(CCl)[nH]nc1CCl
dose: 3.0 mg/kg/injection, schedule: Q04DX004 (ip), vehicle: saline with Tween-80
  T/C: 111 % of control
dose: 6.0 mg/kg/injection, schedule: Q04DX004 (ip), vehicle: saline with Tween-80
  T/C: 110 % of control
dose: 12.0 mg/kg/injection, schedule: Q04DX004 (ip), vehicle: saline with Tween-80
  T/C: 112 % of control
dose: 24.0 mg/kg/injection, schedule: Q04DX004 (ip), vehicle: saline with Tween-80
  T/C: 120 % of control
dose: 48.0 mg/kg/injection, schedule: Q04DX004 (ip), vehicle: saline with Tween-80
  T/C: 114 % of control

## CCCCCCCCCCCC1C(C#N)C(=O)NC(=O)C1C#N (stereo not given)
dose: 50.0 mg/kg/injection, schedule: Q04DX004 (ip), vehicle: Klucel + Tween-80
  T/C: 104 % of control
dose: 100.0 mg/kg/injection, schedule: Q04DX004 (ip), vehicle: Klucel + Tween-80
  T/C: 93 % of control
dose: 200.0 mg/kg/injection, schedule: Q04DX004 (ip), vehicle: Klucel + Tween-80
  T/C: 96 % of control
dose: 400.0 mg/kg/injection, schedule: Q04DX004 (ip), vehicle: Klucel + Tween-80
  T/C: 93 % of control
dose: 800.0 mg/kg/injection, schedule: Q04DX004 (ip), vehicle: Klucel + Tween-80
  T/C: 93 % of control

## Cn1cc(NC(=O)c2cc(NC(=O)c3cc(NC=O)cn3C)cn2C)cc1C(=O)NCCC(=N)N
dose: 12.5 mg/kg/injection, schedule: Q04DX004 (ip), vehicle: water
  T/C: 108 % of control
dose: 25.0 mg/kg/injection, schedule: Q04DX004 (ip), vehicle: water
  T/C: 102 % of control
dose: 50.0 mg/kg/injection, schedule: Q04DX004 (ip), vehicle: water
  T/C: 105 % of control
dose: 100.0 mg/kg/injection, schedule: Q04DX004 (ip), vehicle: water
  T/C: 99 % of control

## COC12[C@@H]3N[C@@H]3CN1C1=C(C(=O)C(NCCSSCCNC3=C(C)C(=O)C4=C(C3=O)C(COC(N)=O)[C@]3(OC)C5N[C@@H]5CN43)=C(C)C1=O)[C@@H]2COC(N)=O (stereo not given in full)
dose: 3.0 mg/kg/injection, schedule: Q04DX004 (ip), vehicle: other
  T/C: 161 % of control
dose: 6.0 mg/kg/injection, schedule: Q04DX004 (ip), vehicle: other
  T/C: 216 % of control
dose: 12.0 mg/kg/injection, schedule: Q04DX004 (ip), vehicle: other
  T/C: 91 % of control
dose: 12.5 mg/kg/injection, schedule: Q04DX004 (ip), vehicle: other
  T/C: 253 % of control

## Nc1nc2n[nH]nc2c(=O)[nH]1
dose: 50.0 mg/kg/injection, schedule: Q04DX004 (ip), vehicle: suspension in saline
  T/C: 118 % of control
dose: 200.0 mg/kg/injection, schedule: Q04DX004 (ip), vehicle: suspension in saline
  T/C: 123 % of control

## Nc1ccc2c(c1)CN1C(=O)c3ccccc3C1=N2
[4]
  T/C: 104 % of control
[5]
  T/C: 110 % of control
[6]
  T/C: 116 % of control

## CC(=O)NCCSSCCCCS(=O)O
dose: 37.5 mg/kg/injection, schedule: Q04DX004 (ip), vehicle: saline
  T/C: 99 % of control
dose: 75.0 mg/kg/injection, schedule: Q04DX004 (ip), vehicle: saline
  T/C: 98 % of control
dose: 150.0 mg/kg/injection, schedule: Q04DX004 (ip), vehicle: saline
  T/C: 100 % of control
dose: 300.0 mg/kg/injection, schedule: Q04DX004 (ip), vehicle: saline
  T/C: 97 % of control
dose: 600.0 mg/kg/injection, schedule: Q04DX004 (ip), vehicle: saline
  T/C: 104 % of control
